# Reference: US8288398B2, “Antiproliferative pyrimidyl, fused pyrimidyl and pyrimidyl hydrazones” (Merck Serono SA, priority 2005, dated 2012)
# What was measured:
# Assay type in all cases: cell-based
# [1] = test system: pancreatic cancer (MiaPaCa-2, human) cells; test: Tumor cell proliferation assay (ATP-lite), MiaPaCa-2; conditions: MIA PaCa-2, 96 h; inhibition of tumor cell growth by 50%; MiaPaCa-2 human pancreatic cancer cells; 4 days incubation; ATP-lite readout
# Protocol: (§1) Assay 1: Tumor Cell Proliferation Assay:
# (§2) Colon cancer (C26, murine), pancreatic cancer (MiaPaCa-2, human) cells were plated in 96-well white plates (Cat. No. 3917, Corning, Inc.) at 2.5×10^3 cells/well and cultured overnight at 37° C. in 5% CO2 in DMEM containing 10% FCS. Inhibitors were serially diluted in 100% DMSO and subsequently added to cells to reach a final concentration of 0.25% DMSO. Cell plates were incubated for an additional 4 days at 37° C. and 5% CO2 and cell proliferation was quantitated using the ATP-lite cell proliferation kit (Cat. No. 6016943, Perkin Elmer).
# (§3) The ATPlite kit quantifies the ATP released from lysed cells by the generation of light caused by the reaction of the released ATP with the Luciferase and D-Luciferin contained in the kit. After the 4th day of incubation, the media is removed from the cell plates and replaced with 100 μL of PBS followed by 50 μL of the lysis solution. The plates are then shaken for 5 minutes on an orbital shaker followed by the addition of 50 μL of substrate solution. The plates are shaken for an additional 5 minutes followed by dark adaptation for 10 minutes and finally read on a Victor^3 V plate reader (1 second/well, Cat. No. 1420-041, Perkin Elmer).
# (§4) Columns 2-3 show the concentration of compounds required to inhibit the growth of tumor cells by 50% (IC50 in μM).
# [2] = test system: Colon cancer (C26, murine) cells; test: Tumor cell proliferation assay (ATP-lite), C26; conditions: Mus musculus, 96 h, inhibition of tumor cell growth by 50%, 4 days incubation, ATP-lite readout
# Protocol: as §1, §2, §3, §4
# [3] = test system: Human umbilical vein endothelial cells (HUVEC); test: Endothelial tube formation assay; conditions: 50% reduction in total endothelial tube length, HUVEC on Matrigel, overnight culture
# Protocol: Assay 2: Endothelial Tube Formation Assay
# Human umbilical vein endothelial cells (HUVEC) (Cascade Biologics #C-003-5C) were plated into 96-well black clear-bottom microplates (Cat. No. 3603, Corning, Inc.) containing 50 uL/well of BD Matrigel Basement Membrane Matrix (BD Biosciences #354234) at 7.5×10^3 cells/well. Inhibitors were serially diluted in 100% DMSO and subsequently added to cells to reach a final concentration of 0.5% DMSO and the plates cultured overnight at 37° C., 5% CO2 in (EGM™-2 MV) (Cambrex #CC-3202). […] Cell plates were incubated in the dark at 37° C., 5% CO2 for 10 minutes and then immediately imaged and quantitated on the Discovery—1 automated microscope (Molecular Devices Corp.) to determine the total endothelial tube length. The total endothelial tube length is calculated using the Angiogenesis image algorithm supplied with the MetaMorph software package (Molecular Devices Corp). […] The binary image is then analyzed to remove objects that are not part of the endothelial tube network, such as cell clumps or debris. Finally, the corrected binary image is processed to reduce the tubes to single pixel width from which the total tube length is calculated. […]
IC50 [1] [nM],IC50 [2] [nM],Compound,IC50 [3] [nM]
< 1000,< 1000,CC(=NN(C)c1nc(C(F)(F)F)nc2ccccc12)c1ccc(C)cc1 [Compound 2],< 1000
< 1000,< 1000,"CC(=NN(C)c1nc(C)nc2ccccc12)c1ccc(C)cc1 [Compound 7, N-Methyl-N-(2-methyl-quinazolin-4-yl)-N-(1-p-tolyl-ethylidene)-hydrazine]",< 1000
< 1000,1000 to 15000,"CC(=NNc1cc(-c2ccccc2N2CCOCC2)nc(C)n1)c1ccc(C)cc1 [Compound 33, N-[2-Methyl-6-(2-morpholin-4-yl-phenyl)-pyrimidin-4-yl]-N′-[1-p-tolyl-ethylidene]-hydrazine]",–
< 1000,< 1000,"CC(=O)Nc1ccccc1-c1cc(NN=C(C)c2ccc(C)cc2)nc(C)n1 [Compound 34, N-[2-(2-Methyl-6-{N′-[1-p-tolyl-ethylidene]-hydrazino}-pyrimidin-4-yl)-phenyl]-acetamide]",–
< 1000,< 1000,"CC(=NNc1cc(-c2ccccc2CO)nc(C)n1)c1ccc(C)cc1 [Compound 35, [2-(2-Methyl-6-{N′-[1-p-tolyl-ethylidene]-hydrazino}-pyrimidin-4-yl)-phenyl]-methanol]",–
< 1000,< 1000,"CC(=NNc1cc(-c2c(C)noc2C)nc(C)n1)c1ccc(C)cc1 [Compound 36, N-[6-(3,5-Dimethyl-isoxazol-4-yl)-2-methyl-pyrimidin-4-yl]-N′-[1-p-tolyl-ethylidene]-hydrazine]",–
< 1000,< 1000,"CC(=NNc1cc(-c2ccccc2N)nc(C)n1)c1ccc(C)cc1 [Compound 38, 2-(2-Methyl-6-{N′-[1-p-tolyl-ethylidene]-hydrazino}-pyrimidin-4-yl)-phenylamine]",–
< 1000,< 1000,"CC(=NN(C)c1cc(-c2ccccc2)nc(C)n1)c1ccc(C)cc1 [Compound 39, N-Methyl-N-(2-methyl-6-phenyl-pyrimidin-4-yl)-N′-[1-p-tolyl-ethylidene]-hydrazine]",–
< 1000,< 1000,"COc1cccc(OC)c1-c1cc(NN=C(C)c2ccc(C)cc2)nc(C)n1 [Compound 40, N-[6-(2,6-Dimethoxy-phenyl)-2-methyl-pyrimidin-4-yl]-N′-[1-p-tolyl-ethylidene]-hydrazine]",–
< 1000,< 1000,"CC(=NNc1cc(-c2ccccc2)nc(C)n1)c1ccc(C)cc1 [Compound 41, N-(2-Methyl-6-phenyl-pyrimidin-4-yl)-N′-(1-p-tolyl-ethylidene)-hydrazine]",–
1000 to 15000,1000 to 15000,"CC(=NNc1cc(-c2ccccc2)nc(C)n1)c1ccc(N)cc1 [Compound 42, 4-{1-[(2-Methyl-6-phenyl-pyrimidin-4-yl)-hydrazono]-ethyl}-phenylamine]",–
